One test concerns the target human P2X7 receptor (Homo sapiens, UniProt Q99572, R270H/Y155H). Briefly: Evaluation of human P2X7 receptor inhibitory activity (Yo-Pro uptake, BzATP stimulation, FLIPR TETRA). Conditions: 1321N1 cells stably expressing human P2X7 receptor; BzATP stimulation, Yo-Pro uptake; read-out: IC50 (antagonistic activity for the human P2X7 receptor). It is filed as cell-based. Summed up:
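Yo-Pro dye uptake triggered by BzATP was monitored by FLIPR in human P2X7-transfected 1321N1 cells (SNP variant) in HEPES-buffered HBSS, pH 7.4-7.5. Compound was dispensed 8 min post-stimulation, then signal read for 20 min; IC50 derived logistically from inhibition of the fluorescence range.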
With `COc1cn(Cc2ccccc2)c(Nc2cccc3sccc23)nc1=O` [Compound I-0104], the IC50 turned out to be 41 nM.

On to `Cc1c(Cl)cccc1Nc1nc(=O)c(OCc2ccccc2)cn1Cc1ccccc1` [Compound I-0149], for which the IC50 came to 26 nM.

As to `COc1cn(Cc2ccc(F)c(Cl)c2)c(Nc2cccc3occc23)nc1=O` [Compound I-0636], the IC50 came to 50 nM.

Take `COc1cn(Cc2ccc(F)c(Cl)c2)c(Nc2c(C)cc3oc(C)cc3c2C)nc1=O` [Compound I-0833]: the IC50 turned out to be 39 nM.

With `COc1cn(Cc2cc(F)cc(F)c2)c(Nc2ccc3ncsc3c2C)nc1=O` [Compound I-0857], the IC50 was 26 nM.

The test is the same for the next values; noted with them: 1321N1 cells stably expressing human P2X7 receptor; BzATP stimulation, Yo-Pro uptake; read-out: IC50 (antagonistic activity for the human P2X7 receptor), class symbol.
For the molecule `CCOc1cn(Cc2ccccc2)c(Nc2cccc(Cl)c2C)nc1=O` [Compound I-0137], the IC50 lay in the range of 10 to 100 nM.

Consider `Cc1c(Cl)cccc1Nc1nc(=O)c(OC(C)C)cn1Cc1ccccc1` [Compound I-0142], for which the IC50 fell in the range of 10 to 100 nM.

With `CCc1cc(OC)ccc1Nc1nc(=O)c(OC)cn1Cc1ccccc1` [Compound I-0235], the IC50 lay in the range of 10 to 100 nM.

As for `COc1ccc(C)c(Nc2nc(=O)c(OC)cn2Cc2ccccc2)c1` [Compound I-0074], the IC50 was 10 to 100 nM.

On to `Cc1ccc(N2CCCS2(=O)=O)cc1Nc1nc(=O)c(Cl)cn1Cc1ccccc1` [Compound I-0313], for which the IC50 is 10 to 100 nM.

Turning to `CCc1cc(OC)c(OC)cc1Nc1nc(=O)c(OC)cn1Cc1cccc(F)c1` [Compound I-0269], the IC50 is less than 10 nM.

Consider `COc1cn(Cc2cccc(Cl)c2)c(Nc2cc(C)c(OC(F)F)cc2C)nc1=O` [Compound I-0299], for which the half-inhibitory concentration (IC50) was in the range of 10 to 100 nM.

With `COc1cn(Cc2ccccc2)c(Nc2cc(C(F)(F)F)ccc2C)nc1=O` [Compound I-0097], the 50% inhibitory concentration (IC50) is 100 to 500 nM.

In the case of `COc1cn(Cc2ccc(F)c(Cl)c2)c(Nc2cccc(N(C)C)c2C)nc1=O` [Compound I-0402], the IC50 was less than 10 nM.

Turning to `COc1cn(Cc2ccccc2)c(Nc2cc(Cl)c(Cl)cc2C)nc1=O` [Compound I-0476], the IC50 is less than 10 nM.

Regarding `COc1cc(C)cc(Nc2nc(=O)c(OC)cn2Cc2ccc(F)c(F)c2)c1C` [Compound I-0404], the IC50 is less than 10 nM.

For the molecule `COC(=O)c1ccc(C)c(Nc2nc(=O)c(OC)cn2Cc2ccccc2)c1` [Compound I-0150], the IC50 was 100 to 500 nM.

In the case of `COc1cc(C)cc(Nc2nc(=O)c(OC)cn2Cc2ccc(F)cc2)c1C` [Compound I-0560], the concentration for half-maximal inhibition (IC50) is less than 10 nM.

Consider `COc1cn(Cc2ccccc2OC(F)F)c(Nc2cccc(Cl)c2C)nc1=O` [Compound I-0457], for which the IC50 was less than 10 nM.

With `CCOc1cc(C)c(Nc2nc(=O)c(OC)cn2Cc2cccc(Cl)c2)cc1C` [Compound I-0259], the IC50 is less than 10 nM.

For the molecule `COc1cn(Cc2ccccc2)c(Nc2ccc(Cl)cc2C)nc1=O` [Compound I-0072], the IC50 was 10 to 100 nM.

The test is the same for the next values; noted with them: antagonistic activity for the human P2X7 receptor; read-out: IC50.
`COc1cccc(Nc2nc(=O)c(OC)cn2Cc2cc(F)cc(F)c2)c1Cl` [Compound I-0638]: the concentration for half-maximal inhibition (IC50) was less than 10 nM.

Regarding `COCc1cn(Cc2cc(F)c(F)c(F)c2)c(Nc2ccc(OC)cc2C)nc1=O` [Compound I-1140], the IC50 lay within 10 to 100 nM.

Take `CCOc1cc(C)c(Nc2nc(=O)c(F)cn2Cc2cc(F)c(F)c(F)c2)cc1C` [Compound I-1201]: the IC50 was less than 10 nM.

`COc1cn(Cc2ccc(F)c(Cl)c2)c(Nc2cc(N3CCCC3)ccc2C)nc1=O` [Compound I-0884]: the half-maximal inhibitory concentration (IC50) lay within 10 to 100 nM.

As for `COc1cn(Cc2cc(F)cc(F)c2)c(Nc2cc3c(cc2C)OCCO3)nc1=O` [Compound I-0709], the IC50 was less than 10 nM.

In the case of `COc1cn(Cc2ccccc2)c(Nc2cccc(C)c2F)nc1=O` [Compound I-0761], the IC50 fell in the range of 100 to 500 nM.

For `COc1cn(Cc2ccc(F)c(F)c2)c(Nc2cc(-c3cscn3)ccc2C)nc1=O` [Compound I-0751], the IC50 is less than 10 nM.

In the case of `Cc1cn(Cc2cc(F)c(F)c(F)c2)c(Nc2ccc3[nH]ccc3c2C)nc1=O` [Compound I-1165], the IC50 is less than 10 nM.

For `COc1cn(Cc2cc(F)cc(F)c2)c(Nc2cc(-n3cccc3)ccc2C)nc1=O` [Compound I-0655], the IC50 was in the range of 10 to 100 nM.

On to `COc1cn(Cc2cc(F)cc(F)c2)c(Nc2cc(-c3cnccn3)ccc2C)nc1=O` [Compound I-0684], for which the IC50 is 10 to 100 nM.

With `Cc1cc(OC(F)F)c(C)cc1Nc1nc(=O)c(F)cn1Cc1ccc(F)c(F)c1` [Compound I-0835], the IC50 was less than 10 nM.

For the molecule `COc1cn(Cc2cc(F)c(F)c(F)c2)c(Nc2ccc(Oc3ccnc(F)c3)cc2C)nc1=O` [Compound I-0933], the IC50 is 100 to 500 nM.

On to `CCOc1ccc(Nc2nc(=O)c(F)cn2Cc2cc(F)cc(F)c2)c(C)c1` [Compound I-1047], for which the IC50 lay within 10 to 100 nM.

With `Cc1ccc(Nc2nc(=O)c(F)cn2Cc2cc(F)c(F)c(F)c2)c(C)c1` [Compound I-1193], the IC50 is less than 10 nM.

Take `Cc1cc(OC(F)F)ccc1Nc1nc(=O)c(F)cn1Cc1ccc(F)c(Cl)c1` [Compound I-1063]: the IC50 was in the range of 10 to 100 nM.

Consider `COc1cn(Cc2cc(F)cc(F)c2)c(Nc2cc(C)c(OCC(F)(F)F)cc2C)nc1=O` [Compound I-0806], for which the half-inhibitory concentration (IC50) is 10 to 100 nM.

As for `Cc1cc2cc(Nc3nc(=O)c(F)cn3Cc3cc(F)cc(F)c3)c(C)cc2[nH]1` [Compound I-1057], the IC50 lay within 10 to 100 nM.

As for `Cc1cc(C)c(Nc2nc(=O)c(F)cn2Cc2cc(F)c(F)c(F)c2)cc1C` [Compound I-1200], the IC50 was less than 10 nM.

Consider `C=C(C)c1ccc(C)c(Nc2nc(=O)c(OC)cn2Cc2ccccc2)c1` [Compound I-0722], for which the IC50 was 10 to 100 nM.

With `CCOc1c(C)cccc1Nc1nc(=O)c(F)cn1Cc1cc(F)c(F)c(F)c1` [Compound I-1223], the IC50 is less than 10 nM.

Consider `COc1cn(Cc2ccccc2)c(Nc2cc(C)c(OCC(F)(F)F)cc2C)nc1=O` [Compound I-0800], for which the IC50 was 10 to 100 nM.

Consider `Cc1ccc(-c2cccn(C)c2=O)cc1Nc1nc(=O)c(F)cn1Cc1cc(F)c(F)c(F)c1` [Compound I-1221], for which the IC50 is less than 10 nM.

In the case of `COc1cn(Cc2cc(F)cc(F)c2)c(Nc2cc3nc(C)sc3cc2C)nc1=O` [Compound I-0745], the IC50 was 100 to 500 nM.

Consider `COc1cnc(Nc2cc(C)c(Cl)cc2C)n(Cc2ccccc2)c1=O` [Compound I-0981], for which the IC50 was 500 to 1000 nM.

With `COc1ccc(Nc2nc(=O)cnn2Cc2cccc(F)c2)c(C)c1` [Compound I-1274], the IC50 was less than 10 nM.

With `COc1cn(Cc2cc(F)cc(F)c2)c(Nc2cc(-c3cccn(C)c3=O)c(F)cc2C)nc1=O` [Compound I-0592], the IC50 is 10 to 100 nM.

For `COc1cn(Cc2ccccc2)c(Nc2ccc3ncsc3c2C)nc1=O` [Compound I-0855], the IC50 lay within 10 to 100 nM.

With `Cc1cc(OC(F)F)c(C)cc1Nc1nc(=O)c(F)cn1Cc1ccc(F)c(Cl)c1` [Compound I-0834], the IC50 is less than 10 nM.

For `CCOc1cn(Cc2ccc(F)c(Cl)c2)c(Nc2cc(OC)c(OC)cc2CC)nc1=O` [Compound I-0909], the 50% inhibitory concentration (IC50) lay within 10 to 100 nM.

With `COCc1cccc(Nc2nc(=O)c(F)cn2Cc2cc(F)c(F)c(F)c2)c1C` [Compound I-1178], the IC50 was less than 10 nM.

In the case of `COc1cn(Cc2cc(F)cc(F)c2)c(Nc2cc(-c3ccc(C)o3)ccc2C)nc1=O` [Compound I-0769], the IC50 was in the range of 10 to 100 nM.

Turning to `COc1cn(Cc2cc(F)cc(Cl)c2)c(Nc2cc(-n3cccc3)ccc2C)nc1=O` [Compound I-0654], the IC50 lay within 10 to 100 nM.

Take `CCc1ccc(C)c(Nc2nc(=O)c(F)cn2Cc2cc(F)c(F)c(F)c2)c1` [Compound I-1226]: the IC50 is less than 10 nM.
